Measured values taken from US4652573A, “Calcium antagonist N-hetero ester 1,4-dihydropyridines” (Nelson Research & Development Co., priority 1985, dated 1987).

Legend:
[1] = tested on: spontaneous hypertensive rats (SHR); experiment: Hypotensive Activity: systolic arterial blood pressure, indirect tail cuff method, oral administration; type: in vivo, rat; settings: oral 10 m mol/Kg in polyethylene glycol, positive = fall; for Mean Change in Blood Pressure (Pressure before Administration minus pressure after Administration mm Hg) 10 min: 10 min after administration; for Mean Change in Blood Pressure (Pressure before Administration minus pressure after Administration mm Hg) 20 min: 20 min after administration; for Mean Change in Blood Pressure (Pressure before Administration minus pressure after Administration mm Hg) 30 min: 30 min after administration; for Mean Change in Blood Pressure (Pressure before Administration minus pressure after Administration mm Hg) 60 min: 60 min after administration; for Mean Change in Blood Pressure (Pressure before Administration minus pressure after Administration mm Hg) 90 min: 90 min after administration; for Mean Change in Blood Pressure (Pressure before Administration minus pressure after Administration mm Hg) 120 min: 120 min after administration
Procedure: Systolic arterial blood pressure was measured with the indirect tail cuff method in spontaneous hypertensive rats (SHR). The change in baseline pressure (170-210 mm Hg) was recorded at various time points following oral administration of 10 m mol/Kg of the test compound in polyethylene glycol.

[2] = biological target: T1, DHP Site of the Calcium Channel (Oryctolagus cuniculus, UniProt P07293); experiment: Binding Assay for Drugs Acting at the DHP Site of the Calcium Channel (3H-nitrendipine displacement, washed rabbit skeletal muscle membranes); settings: read-out: KI (moles)
T1 construct: Washed rabbit skeletal muscle membranes; from tissue; host or cells: rabbit skeletal muscle, washed membranes (fraction 2-8×)
Procedure: A. Binding Assay for Drugs Acting at the DHP Site of the Calcium Channel.
The assay was carried out as described by Fairhurst et al., Life Sciences, 32, 1331 (1983). Washed rabbit skeletal muscle membranes (fraction 2-8×) were incubated for 30 minutes at 25° C. in 2 ml final volume of medium containing 12.5 mM HEPES buffer pH 7.4 and 0.5×10^-9 M ^3 H-nitrendipine having a specific activity of approximately 17 Ci/m mol.
The incubation tubes were rapidly chilled in ice and the contents filtered through Whatman GF/B filters on a Millipore manifold, and the filters washed with 2×10 ml ice-cold HEPES buffer. The filters were placed in scintillation counting vials with 8 ml of Cytoscint cocktail, disrupted mechanically by shaking for 30 minutes and counted.
Drugs which interact at the DHP site will reduce this specific binding in a dose-dependent manner. The assays for the compounds of this invention were made with logarithmically spaced concentrations, the data were plotted on a probit-concentration plot, and the IC50 read off. The KI of the drug was calculated by standard techniques.

T1 sequence (P07293 whole entry): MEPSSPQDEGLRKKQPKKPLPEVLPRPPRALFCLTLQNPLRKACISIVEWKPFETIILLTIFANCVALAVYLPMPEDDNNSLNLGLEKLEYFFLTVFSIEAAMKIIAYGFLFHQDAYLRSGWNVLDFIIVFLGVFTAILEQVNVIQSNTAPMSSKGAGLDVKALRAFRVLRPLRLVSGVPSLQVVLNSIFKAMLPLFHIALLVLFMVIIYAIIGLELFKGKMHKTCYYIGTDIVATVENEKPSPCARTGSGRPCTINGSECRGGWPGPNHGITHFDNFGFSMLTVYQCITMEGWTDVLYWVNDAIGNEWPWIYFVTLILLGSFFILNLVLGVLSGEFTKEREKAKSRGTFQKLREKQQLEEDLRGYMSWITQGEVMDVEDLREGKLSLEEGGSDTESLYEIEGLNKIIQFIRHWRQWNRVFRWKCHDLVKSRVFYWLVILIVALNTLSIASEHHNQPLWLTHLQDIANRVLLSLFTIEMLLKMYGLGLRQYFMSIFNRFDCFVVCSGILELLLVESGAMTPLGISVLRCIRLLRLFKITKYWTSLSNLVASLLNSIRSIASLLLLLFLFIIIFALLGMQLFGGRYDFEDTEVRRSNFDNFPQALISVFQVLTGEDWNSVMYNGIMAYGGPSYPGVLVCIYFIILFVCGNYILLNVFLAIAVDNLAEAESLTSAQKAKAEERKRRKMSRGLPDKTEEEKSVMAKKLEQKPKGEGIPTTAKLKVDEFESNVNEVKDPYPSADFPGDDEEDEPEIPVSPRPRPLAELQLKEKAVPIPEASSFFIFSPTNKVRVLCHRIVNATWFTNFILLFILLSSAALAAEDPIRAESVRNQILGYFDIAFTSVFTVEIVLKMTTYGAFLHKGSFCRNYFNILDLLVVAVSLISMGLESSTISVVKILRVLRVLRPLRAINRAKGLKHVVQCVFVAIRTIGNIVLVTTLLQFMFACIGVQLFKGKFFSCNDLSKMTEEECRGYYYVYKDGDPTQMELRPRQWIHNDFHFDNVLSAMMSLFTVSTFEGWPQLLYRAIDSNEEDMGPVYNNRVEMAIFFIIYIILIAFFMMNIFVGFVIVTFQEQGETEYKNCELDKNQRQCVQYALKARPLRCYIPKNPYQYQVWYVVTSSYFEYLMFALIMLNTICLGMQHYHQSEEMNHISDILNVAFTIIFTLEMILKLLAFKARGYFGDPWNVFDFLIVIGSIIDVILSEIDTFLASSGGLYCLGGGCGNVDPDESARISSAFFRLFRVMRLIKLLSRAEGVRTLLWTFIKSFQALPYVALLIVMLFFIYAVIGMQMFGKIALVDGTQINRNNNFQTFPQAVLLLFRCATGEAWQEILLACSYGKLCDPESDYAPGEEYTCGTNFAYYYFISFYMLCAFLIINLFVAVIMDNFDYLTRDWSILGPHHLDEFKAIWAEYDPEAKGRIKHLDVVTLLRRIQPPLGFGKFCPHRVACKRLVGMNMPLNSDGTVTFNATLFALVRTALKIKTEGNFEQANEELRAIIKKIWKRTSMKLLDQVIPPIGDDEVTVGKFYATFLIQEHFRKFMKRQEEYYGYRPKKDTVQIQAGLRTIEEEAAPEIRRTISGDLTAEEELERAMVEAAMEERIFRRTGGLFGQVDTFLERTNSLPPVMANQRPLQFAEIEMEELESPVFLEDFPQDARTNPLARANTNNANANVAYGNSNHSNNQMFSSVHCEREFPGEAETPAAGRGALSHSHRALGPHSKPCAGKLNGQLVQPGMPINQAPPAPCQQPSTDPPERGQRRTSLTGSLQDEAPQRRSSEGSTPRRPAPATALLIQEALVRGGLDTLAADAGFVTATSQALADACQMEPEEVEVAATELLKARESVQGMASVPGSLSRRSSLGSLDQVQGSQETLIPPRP

Compound | Ki [2] | Mean Change in Blood Pressure (Pressure before Administration minus pressure after Administration mm Hg) 10 min [1] | Mean Change in Blood Pressure (Pressure before Administration minus pressure after Administration mm Hg) 20 min [1] | Mean Change in Blood Pressure (Pressure before Administration minus pressure after Administration mm Hg) 30 min [1] | Mean Change in Blood Pressure (Pressure before Administration minus pressure after Administration mm Hg) 60 min [1] | Mean Change in Blood Pressure (Pressure before Administration minus pressure after Administration mm Hg) 90 min [1] | Mean Change in Blood Pressure (Pressure before Administration minus pressure after Administration mm Hg) 120 min [1]
COC(=O)C1=C(C)NC(C)=C(C(=O)OC)C1c1ccccc1[N+](=O)[O-] [Nifedipine, nifedipine, reference compound] | – | 37 mm Hg | 36 mm Hg | 20 mm Hg | 15 mm Hg | 4 mm Hg | 4 mm Hg
COC(=O)C1=C(C)NC(C)=C(C(=O)OCCN2Cc3ccccc3C2)C1c1cccc([N+](=O)[O-])c1 (stereo not drawn) [Example 8, 2,6-Dimethyl-3-(2-isoindolinylcarbethoxy)-4-(3-nitrophenyl)-5-carbomethoxy-1,4-dihydropyridine] | 3.5 nM | 36 mm Hg | 30 mm Hg | 32 mm Hg | 16 mm Hg | 4 mm Hg | 2 mm Hg
COC(=O)C1=C(C)NC(C)=C(C(=O)OCCN2C(=O)c3ccccc3C2=O)C1c1cccc([N+](=O)[O-])c1 (stereo not drawn) [Example 2, 2,6-dimethyl-3-(2-phthalimidocarbethoxy)-4-(3-nitrophenyl)-5-carbomethoxy-1,4-dihydropyridine] | 0.7 nM | 9 mm Hg | 10 mm Hg | 10 mm Hg | 6 mm Hg | 0 mm Hg | 0 mm Hg
COC(=O)C1=C(C)NC(C)=C(C(=O)OCCN2C(=O)c3ccccc3C2=O)C1c1cccc(C)c1 (stereo not drawn) [Example 1, 2,6-dimethyl-3-(2-phthalimidocarbethoxy)-4-(3-methylphenyl)-5-carbomethoxy-1,4-dihydropyridine] | 19.7 nM | 17 mm Hg | 10 mm Hg | 4 mm Hg | -2 mm Hg | 5 mm Hg | -4 mm Hg
CC1=C(C(=O)OCCN2C(=O)c3ccccc3C2=O)C(c2cccc([N+](=O)[O-])c2)C(C(=O)OCCN2C(=O)c3ccccc3C2=O)=C(C)N1 [Example 4, 2,6-dimethyl-3,5-di(2-phthalimidocarbethoxy)-4-(3-nitrophenyl)-1,4-dihydropyridine] | 2.5 nM | 9 mm Hg | 8 mm Hg | 14 mm Hg | 11 mm Hg | 14 mm Hg | 10 mm Hg
COC(=O)C1=C(C)NC(C)=C(C(=O)OCCCN2C(=O)c3ccccc3C2=O)C1c1cccc([N+](=O)[O-])c1 (stereo not drawn) [Example 5] | 4.8 nM | -5 mm Hg | -14 mm Hg | -10 mm Hg | -6 mm Hg | -6 mm Hg | -5 mm Hg

Continued by falling Ki [2], values first:

Ki [2] | Compound | Mean Change in Blood Pressure (Pressure before Administration minus pressure after Administration mm Hg) 10 min [1] | Mean Change in Blood Pressure (Pressure before Administration minus pressure after Administration mm Hg) 20 min [1] | Mean Change in Blood Pressure (Pressure before Administration minus pressure after Administration mm Hg) 30 min [1] | Mean Change in Blood Pressure (Pressure before Administration minus pressure after Administration mm Hg) 60 min [1] | Mean Change in Blood Pressure (Pressure before Administration minus pressure after Administration mm Hg) 90 min [1] | Mean Change in Blood Pressure (Pressure before Administration minus pressure after Administration mm Hg) 120 min [1]
270 nM | COC(=O)C1=C(C)NC(C)=C(C(=O)OCCN2CCCC2=O)C1c1cccc([N+](=O)[O-])c1 (stereo not drawn) [Example 10, 2,6-Dimethyl-3-[2-(2-oxopyrrolidino)carbethoxy]-4-(3-nitrophenyl)-5-carbomethoxy-1,4-dihydropyridine] | -17 mm Hg | -5 mm Hg | 11 mm Hg | 7 mm Hg | 6 mm Hg | 7 mm Hg
150 nM | COC(=O)C1=C(C)NC(C)=C(C(=O)OCCN2C(=O)CCC2=O)C1c1cccc([N+](=O)[O-])c1 (stereo not drawn) [Example 9, 2,6-Dimethyl-3-(2-succimimidocarbethoxy)-4-(3-nitrophenyl)-5-carbomethoxy-1,4-dihydropyridine] | 36 mm Hg | 10 mm Hg | 5 mm Hg | 3 mm Hg | 19 mm Hg | 11 mm Hg
48 nM | COC(=O)C1=C(C)NC(C)=C(C(=O)OCCN2C(=O)c3ccccc3C2=O)C1c1cccc(C(F)(F)F)c1 (stereo not drawn) [Example 3, 2-6-dimethyl-3-(2-phthalimidocarbethoxy)-4-(3-trifluoromethylphenyl)-5-carbomethoxy-1,4-dihydropyridine] | – | – | – | – | – | –
20 nM | COC(=O)C1=C(C)NC(C)=C(C(=O)OCCN2Cc3ccccc3C2=O)C1c1cccc([N+](=O)[O-])c1 (stereo not drawn) [Example 7, 2,6-Dimethyl-3-(2-phthalimidinocarbethoxy)-4-(3-nitrophenyl)-5-carbomethoxy-1,4-dihydropyridine] | 14 mm Hg | 19 mm Hg | 10 mm Hg | 10 mm Hg | 20 mm Hg | 19 mm Hg
2.5 nM | CC1=C(C(=O)OCCn2c(C)ccc2C)C(c2cccc([N+](=O)[O-])c2)C(C(=O)OCCn2c(C)ccc2C)=C(C)N1 [Example 12, 2,6-Dimethyl-3,5-(2,5-dimethylpyrrolylcarbethoxy)-4-(3-nitrophenyl)-1,4-dihydropyridine] | – | – | – | – | – | –
1.9 nM | COC(=O)C1=C(C)NC(C)=C(C(=O)OCCCCCCN2C(=O)c3ccccc3C2=O)C1c1cccc([N+](=O)[O-])c1 (stereo not drawn) [Example 6, 2,6-Dimethyl-3-(6-phthalimidocarbohexoxy)-4-(3-nitrophenyl)-5-carbomethoxy-1,4-dihydropyridine] | 18 mm Hg | 10 mm Hg | 12 mm Hg | 14 mm Hg | 2 mm Hg | 0 mm Hg
1.1 nM | COC(=O)C1=C(C)NC(C)=C(C(=O)OCCN(C)Cc2ccccc2)C1c1cccc([N+](=O)[O-])c1 (stereo not drawn) [Nicardipine, nicardipine, reference compound] | – | – | – | – | – | –
